Measured values: US8222236B2, “2-methylene-(20E)-20(22)-dehydro-19-nor-vitamin D analogs” (Wisconsin Alumni Research Foundation, priority 2008, dated 2012)
Entries after “also recorded” stand apart in the source; their conditions may differ.

Tests used:
[1] = test system: intestinal calcium transport; assay: Intestinal calcium transport, everted gut sac method, vitamin D-deficient rats; type: in vivo, rat; conditions: FIG. 5; for intestinal calcium transport at 260 pmol/day, in words: ip, 4 consecutive days
Description: (§1) Male, weanling Sprague-Dawley rats were placed on Diet 11 (0.47% Ca) diet +AEK oil for one week followed by Diet 11 (0.02% Ca) +AEK oil for 3 weeks. The rats were then switched to a diet containing 0.47% Ca for one week followed by two weeks on a diet containing 0.02% Ca. Dose administration began during the last week on 0.02% calcium diet. Four consecutive ip doses were given approximately 24 hours apart. Twenty-four hours after the last dose, blood was collected from the severed neck and the concentration of serum calcium determined as a measure of bone calcium mobilization. The first 10 cm of the intestine was also collected for intestinal calcium transport analysis using the everted gut sac method.

[2] = test system: bone calcium mobilization; assay: Bone calcium mobilization (serum calcium) in vitamin D-deficient rats; type: in vivo, rat; conditions: 0.02% Ca diet, FIG. 4
Description: as §1

HL-60 cells = assay: HL-60 cell differentiation (nitro blue tetrazolium reduction); type: cell-based, human; conditions: FIG. 2; for EC50: HL-60 cells, 4 days
Description: The study drugs were dissolved in ethanol and the concentrations determined using UV spectrophotometry. Serial dilutions were prepared so that a range of drug concentrations could be tested without changing the final concentration of ethanol (≦0.2%) present in the cell cultures.
Human promyelocytic leukemia (HL60) cells were grown in RPMI-1640 medium containing 10% fetal bovine serum. The cells were incubated at 37° C. in the presence of 5% CO2.
HL60 cells were plated at 1.2×10^5 cells/ml. Eighteen hours after plating, cells in duplicate were treated with drug. Four days later, the cells were harvested and a nitro blue tetrazolium reduction assay was performed (Collins et al., 1979; J. Exp. Med. 149:969-974). The percentage of differentiated cells was determined by counting a total of 200 cells and recording the number that contained intracellular black-blue formazan deposits. Verification of differentiation to monocytic cells was determined by measuring phagocytic activity (data not shown).

[3] = target: T1, full-length recombinant rat vitamin D receptor (Rattus norvegicus, UniProt P13053); assay: Vitamin D receptor competitive binding with [3H]-1,25(OH)2D3; conditions: FIG. 1
T1 construct: Full-length recombinant rat receptor was expressed in E. coli BL21 (DE3) Codon Plus RIL cells; histidine tag (C); made in house; host or cells: E. coli BL21 (DE3) Codon Plus RIL
T1 sequence (P13053 1-423): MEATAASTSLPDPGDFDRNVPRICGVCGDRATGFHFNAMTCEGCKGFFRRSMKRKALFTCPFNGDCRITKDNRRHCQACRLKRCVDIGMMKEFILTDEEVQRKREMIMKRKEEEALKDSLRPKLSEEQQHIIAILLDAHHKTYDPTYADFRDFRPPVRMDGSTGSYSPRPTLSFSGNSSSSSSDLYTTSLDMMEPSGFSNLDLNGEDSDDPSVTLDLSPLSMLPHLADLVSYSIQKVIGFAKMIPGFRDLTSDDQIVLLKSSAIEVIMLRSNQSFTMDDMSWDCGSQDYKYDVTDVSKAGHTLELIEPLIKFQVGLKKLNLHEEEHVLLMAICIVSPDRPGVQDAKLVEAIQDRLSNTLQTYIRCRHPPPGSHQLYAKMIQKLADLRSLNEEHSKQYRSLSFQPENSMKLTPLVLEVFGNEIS
Description: Full-length recombinant rat receptor was expressed in E. coli BL21 (DE3) Codon Plus RIL cells and purified to homogeneity using two different column chromatography systems. The first system was a nickel affinity resin that utilizes the C-terminal histidine tag on this protein. The protein that was eluted from this resin was further purified using ion exchange chromatography (S-Sepharose Fast Flow). Aliquots of the purified protein were quick frozen in liquid nitrogen and stored at −80° C. until use. For use in binding assays, the protein was diluted in TEDK50 (50 mM Tris, 1.5 mM EDTA, pH7.4, 5 mM DTT, 150 mM KCl) with 0.1% Chaps detergent. The receptor protein and ligand concentration were optimized such that no more than 20% of the added radiolabeled ligand was bound to the receptor.
Radiolabeled and unlabeled ligands were added to 100 mcl of the diluted protein at a final ethanol concentration of ≦10%, mixed and incubated overnight on ice to reach binding equilibrium. The following day, 100 mcl of hydroxylapatite slurry (50%) was added to each tube and mixed at 10-minute intervals for 30 minutes. The hydroxylapaptite was collected by centrifugation and then washed three times with Tris-EDTA buffer (50 mM Tris, 1.5 mM EDTA, pH 7.4) containing 0.5% Titron X-100. […] Total binding was determined from the tubes containing only radiolabeled ligand.

[4] = test system: 24-hydroxylase (24Ohase) gene promoter; assay: In vitro transcription assay, 24-hydroxylase gene promoter luciferase reporter in ROS 17/2.8 (bone) cells; type: cell-based; conditions: ROS 17/2.8 cells, 24-hydroxylase promoter-luciferase, 16 hours; FIG. 3; read-out: EC50, transcriptional activity in bone cells
Description: Transcription activity was measured in ROS 17/2.8 (bone) cells that were stably transfected with a 24-hydroxylase (24Ohase) gene promoter upstream of a luciferase reporter gene (Arbour et al., 1998). Cells were given a range of doses. Sixteen hours after dosing the cells were harvested and luciferase activities were measured using a luminometer.
RLU=relative luciferase units.

VDR binding affinity compared to 1,25(OH)2D3 [3]	Ki ([3]; full-length recombinant rat VDR, read-out: Ki, competition with [3H]-1,25(OH)2D3 for binding to the vitamin D receptor) [pM]	EC50 [4] [pM]	EC50 (HL-60 cells; Homo sapiens, 96 h) [pM]	Compound	intestinal calcium transport at 260 pmol/day, in words [1]	bone calcium mobilization activity (serum calcium), in words [2]	dose giving the same mobilization of bone calcium ([2]; ip, 4 consecutive days) [pmol/day]	EC50 (HL-60 cells) [pM]	intestinal calcium transport activity, in words ([1]; vitamin D-deficient rats)	dose at which any substantial effect on bone calcium mobilization was seen ([2]; ip, 4 consecutive days) [pmol/day]	potency on HL-60 cell differentiation relative to 1,25(OH)2D3 (HL-60 cells) [times]
–	–	–	–	C=C1/C(=C\C=C2/CCC[C@]3(C)[C@@H]([C@H](C)CCCC(C)(C)O)CC[C@@H]23)C[C@@H](O)C[C@@H]1O [1,25(OH)2D3, 1α,25-dihydroxyvitamin D3, reference compound]	significant increase	increased serum calcium levels at all dosages	87	2000	–	–	–
bound with the same affinity	100	20	800	C=C1[C@H](O)CC(=C/C=C2\CCC[C@]3(C)[C@@H](/C(C)=C/CCC(C)(C)O)CC[C@@H]23)C[C@H]1O [Vit III 20-22E, 2-methylene-(20E)-20(22)-dehydro-19-nor-1α,25-dihydroxyvitamin D3]	promotes intestinal calcium transport	less bone calcium mobilization activity; also recorded: relatively low, or little, activity in mobilizing calcium from bone	780	–	about the same activity; also recorded: about the same as or equal to 1,25(OH)2D3	7020	3 to 4
